# Measured values reported in publication PMC8279408.
# Entries after “also recorded” stand apart in the source; their conditions may differ.
# Experiments:
# [1] = target: human glucagon like peptide-1 receptor (human) (UniProt P43220)
# patients = conditions: over ∼1 year; cited from earlier work
# rat GLP-1R (rat) = rat GLP-1R (rat) (UniProt P32301)
# [2] = target: human glucagon like peptide-1 receptor (human) (UniProt P43220); assay: AlphaScreen or HTRF; Taglite fluorescence competitive binding assay (Euroscreen Fast, Cat No. FAST0154B) on CHO-K1 cells at the human GLP-1R; agonist tracer GLP-1red at 4 nM, reference competitor nEx-4; nine concentrations from 1 pM to 1 uM, duplicate independent runs
# shrews = assay: Food intake and body weight (energy balance) in shrews; type: in vivo, Suncus murinus; conditions: 5 nmol/kg IP, single dose, n = 10 shrews
# Protocol: Food intake was evaluated using our custom-made feedometers, consisting of a standard plexiglass rodent housing cage (29 × 19 × 12.7 cm) with mounted food hoppers resting on a plexiglass cup (to account for spillage). Shrews had ad libitum access to powdered food through a circular (3 cm diameter) hole in the cage. Food was removed 1 h prior to the dark onset. […] Food intake was manually measured at 6, 24, and 48 h post injection. BW was measured at 0, 24, and 48 h.
# Water solubility = type: physicochemical; conditions: in distilled water
# Protocol: The synthesis of dicyanocobinamide (Cbi) was performed according to previously reported methods.[59] Briefly, to a 10 mL microwave reaction vessel containing a magnetic stir bar were added B12 (cyanocobalamin) (303.8 mg, 0.225 mmol) (see Figures S1–S6), sodium cyanide (NaCN) (36.9 mg, 0.7096 mmol), and 5 mL of EtOH, and the vessel was sealed. The reaction was heated to 120 °C for 10 min. Following completion of the microwave reaction, the remaining solution was transferred and diluted using isopropyl alcohol (iPrOH). The reaction was purified utilizing a normal-phase silica column. The reaction was eluted using 100% methanol (MeOH). The product eluted as a purple product. The isolated product was precipitated utilizing diethyl ether (Et2O) and allowed to dry producing a solid, purple product, 2 (see Figure 2), in 80% yield (187.4 mg, 0.1795 mmol). Solubility was measured to be 400 mg/mL in distilled water.
# Sequence of human glucagon like peptide-1 receptor (human) (P43220 24-463): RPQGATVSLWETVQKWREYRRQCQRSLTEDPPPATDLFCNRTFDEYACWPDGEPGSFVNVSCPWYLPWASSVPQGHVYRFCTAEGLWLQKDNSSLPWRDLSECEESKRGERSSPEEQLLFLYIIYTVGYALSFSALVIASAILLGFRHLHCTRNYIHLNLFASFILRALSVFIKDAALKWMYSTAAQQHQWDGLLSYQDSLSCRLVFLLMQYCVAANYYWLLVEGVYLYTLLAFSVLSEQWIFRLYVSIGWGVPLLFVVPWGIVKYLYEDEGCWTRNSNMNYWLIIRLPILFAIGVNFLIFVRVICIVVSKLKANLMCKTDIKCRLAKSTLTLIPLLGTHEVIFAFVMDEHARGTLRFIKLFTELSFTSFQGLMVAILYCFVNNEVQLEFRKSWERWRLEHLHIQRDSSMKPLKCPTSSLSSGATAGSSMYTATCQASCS
# Sequence of rat GLP-1R (rat) (P32301 22-463): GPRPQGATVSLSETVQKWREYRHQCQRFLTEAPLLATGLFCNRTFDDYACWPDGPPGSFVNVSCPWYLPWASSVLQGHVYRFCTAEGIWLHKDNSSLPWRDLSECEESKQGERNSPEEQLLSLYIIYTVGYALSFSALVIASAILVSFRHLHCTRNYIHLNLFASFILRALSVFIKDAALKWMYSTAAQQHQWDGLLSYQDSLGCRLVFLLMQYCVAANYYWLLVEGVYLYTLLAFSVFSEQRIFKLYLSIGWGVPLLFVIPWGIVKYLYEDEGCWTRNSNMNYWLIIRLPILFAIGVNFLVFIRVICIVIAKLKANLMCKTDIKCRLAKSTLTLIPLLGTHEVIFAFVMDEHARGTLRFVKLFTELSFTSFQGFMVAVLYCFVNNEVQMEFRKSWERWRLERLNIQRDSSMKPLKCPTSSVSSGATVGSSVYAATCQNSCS
compound,measurement,setting,value
exendin-4 with K12 azido modification (from UniProt P26349 48-87) (peptide),EC50 of agonism: cAMP FRET reporter H188 in HEK293 cells stably expressing the human GLP-1R,[1],0.0125 nM
"liraglutide (HAEGTFTSDVSSYLEGQAAKEFIAWLVRGRG; chains of the INN, looked up) [GLP-1R agonist]",Body weight reduction,patients,5–6%
native Exendin-4 (from UniProt P26349 48-87) (peptide),EC50 of functional agonism at the rat GLP-1R,rat GLP-1R (rat),0.048 nM
same,IC50,[2],4.97 nM
Cbi-Ex4 [compound 1],Food intake,"shrews; 6, 24, 48 h (72 h in Figure 6D)",had no effect on food intake; also recorded: had no impact on feeding
same,Body weight,shrews; 24 h,No significant changes in body weight; also recorded: not observed
"C/C1=C2/[N-]C([C@H](CC(N)=O)[C@@]2(C)CCC(=O)NCC(C)O)[C@]2(C)N=C(/C(C)=C3N=C(/C=C4N=C1[C@@H](CCC(N)=O)C\4(C)C)[C@@H](CCC(N)=O)[C@]\3(C)CC(N)=O)[C@@H](CCC(N)=O)[C@]2(C)CC(N)=O.[C-]#N.[C-]#N.[Co] (stereo partly drawn) [compound 2, dicyanocobinamide]",Solubility,Water solubility,400 mg/mL
semaglutide,Body weight reduction,patients,10–12%
exendin-4 with an azido-lysine added as residue 40 (from UniProt P26349 48-87) (peptide),EC50 of agonism: cAMP FRET reporter H188 in HEK293 cells stably expressing the human GLP-1R,[1],0.0104 nM
